Tests used:
Assay in all cases: relative viability (nuclei count vs DMSO), 5 days (fraction); higher = more cells survive
Bortezomib + Alpelisib = compound: CC(C)C[C@H](NC(=O)[C@H](Cc1ccccc1)NC(=O)c1cnccn1)B(O)O [Bortezomib] + Cc1nc(NC(=O)N2CCC[C@H]2C(N)=O)sc1-c1ccnc(C(C)(C)C(F)(F)F)c1 [Alpelisib] (partner 2 µM)
Procedure, shortened: (§1)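 Cells from lung cancer lines were seeded into 1536-well plates and, one day later, dosed by pin tool. Treatments were either a single drug or a fixed dose of an anchor drug with five library-drug doses (not always all listed) in √10 steps. After 5 days, nuclei were stained in a one-step fixation (final 0.05% Triton X-100, 1% formaldehyde, 1 ug/ml Hoechst) and counted on 4× images, and relative viability is the treated-to-vehicle nuclei ratio, as the median of duplicate plates.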

[1] = compound: CC1=CC(=NN1)NC2=CC(=NC(=N2)/C=C/C3=CC=CC=C3)N4CCN(CC4)C + CC1(C)CCC(c2ccc(Cl)cc2)=C(CN2CCN(c3ccc(C(=O)NS(=O)(=O)c4ccc(N[C@H](CCN5CCOCC5)CSc5ccccc5)c(S(=O)(=O)C(F)(F)F)c4)cc3)CC2)C1 [Navitoclax] (partner 0.5 µM)
Procedure, shortened: as §1

[2] = compound: CC1=CC(=NN1)NC2=CC(=NC(=N2)/C=C/C3=CC=CC=C3)N4CCN(CC4)C + C[C@]1(O)C[C@@H](c2nc(-c3ccc4ccc(-c5ccccc5)nc4c3)c3c(N)nccn32)C1 [Linsitinib] (partner 1 µM)
Procedure, shortened: as §1

Obatoclax + Vorinostat = compound: COC1=CC(c2cc3ccccc3[nH]2)=N/C1=C\c1[nH]c(C)cc1C [Obatoclax] + O=C(CCCCCCC(=O)Nc1ccccc1)NO [Vorinostat] (partner 1 µM)
Procedure, shortened: as §1

Row | Cell Line | relative viability (Bortezomib + Alpelisib; first compound 0.0002 µM) | relative viability (Bortezomib + Alpelisib; first compound 0.000632 µM) | relative viability (Bortezomib + Alpelisib; first compound 0.002 µM) | relative viability (Bortezomib + Alpelisib; first compound 0.006325 µM) | relative viability (Bortezomib + Alpelisib; first compound 0.02 µM) | relative viability ([1]; first compound 0.08 µM) | relative viability ([1]; first compound 0.253 µM) | relative viability ([1]; first compound 0.8 µM) | relative viability ([1]; first compound 2.53 µM) | relative viability ([1]; first compound 8 µM) | relative viability ([2]; first compound 0.08 µM) | relative viability ([2]; first compound 0.253 µM) | relative viability ([2]; first compound 0.8 µM) | relative viability ([2]; first compound 2.53 µM) | relative viability ([2]; first compound 8 µM) | relative viability (Obatoclax + Vorinostat; first compound 0.01 µM) | relative viability (Obatoclax + Vorinostat; first compound 0.03162 µM) | relative viability (Obatoclax + Vorinostat; first compound 0.1 µM) | relative viability (Obatoclax + Vorinostat; first compound 0.3162 µM) | relative viability (Obatoclax + Vorinostat; first compound 1 µM)
1 | HCC-44 | 0.831 | 0.776 | 0.84 | 0.0994 | 0.115 | 0.967 | 1.01 | 0.965 | 0.912 | 0.436 | 0.64 | 0.755 | 0.659 | 0.235 | 0.201 | 1.04 | 1.06 | 1.05 | 1.1 | 1.03
2 | HCC-78 | 0.331 | 0.359 | 0.258 | 0.136 | 0.148 | 0.799 | 0.918 | 0.823 | 0.568 | 0.126 | 0.42 | 0.568 | 0.494 | 0.391 | 0.152 | 0.384 | 0.441 | 0.551 | 0.438 | 0.527
3 | HCC-366 | 0.467 | 0.316 | 0.409 | 0.339 | 0.0134 | 1.07 | 1.19 | 0.989 | 0.371 | 0.0097 | 0.478 | 1.13 | 0.64 | 0.102 | 0.0084 | 0.352 | 0.398 | 0.312 | 0.353 | 0.191
4 | HCC-827 | 1.12 | 0.948 | 0.8 | 0.149 | 0.126 | 0.972 | 1.04 | 0.979 | 0.937 | 0.705 | 0.955 | 1.06 | 0.932 | 0.814 | 0.635 | 0.879 | 0.726 | 0.711 | 0.25 | 0.82

Reference: the supplement of paper PMC10307832
